Results from patent US20230033195A1, “METHODS AND COMPOSITIONS FOR IMPROVING COGNITIVE FUNCTION” (THE JOHNS HOPKINS UNIVERSITY, priority 2011, published 2023).

Tests used:
aged-impaired (AI) rats = experiment: eight-arm Radial Arm Maze (RAM) task with one-hour delay, spatial memory retention; format: in vivo, rat; conditions: for average no. of errors ± SEM: one-hour delay, vehicle 2.00 ± 0.42
Description: FIG. 3 depicts the effects of administering levetiracetam on the spatial memory retention of ten aged-impaired rats (AI) in an eight-arm Radial Arm Maze (RAM) test. Six treatment conditions were employed: vehicle control, levetiracetam (1.25 mg/kg), levetiracetam (2.5 mg/kg), levetiracetam (5 mg/kg), levetiracetam (10 mg/kg) and levetiracetam (20 mg/kg). In the RAM task used, there was a one-hour delay between presentation of a subset of arms (5 arms available and 3 arms blocked) and completion of the eight-arm win-shift task (eight arms available). Rats were pre-treated 30 - 40 minutes before daily trials with a one-time drug/control treatment. The number of errors made by the rats after the delay was used as a measure of spatial memory retention. Errors were defined as instances when rats entered an arm from which food had already been retrieved in the pre-delay component of the trial or when rats re-visited an arm in the post-delay session that had already been visited. Paired t-tests were used to compare the number of errors between different doses of levetiracetam and vehicle control.
The effects of levetiracetam on the spatial memory retention of aged-impaired (AI) rats were assessed in a Radial Arm Maze (RAM) behavioral task using vehicle control and five different dosage levels of levetiracetam (1.25 mg/kg/day, 2.5 mg/kg/day, 5 mg/kg/day, 10 mg/kg/day and 20 mg/kg/day). RAM behavioral tasks were preformed on ten AI rats. All six treatment conditions were tested on all ten rats, as described above for the MWM test.
The RAM apparatus used consisted of eight equidistantly-spaced arms. An elevated maze arm (7 cm width x 75 cm length) projected from each facet of an octagonal center platform (30 cm diameter, 51.5 cm height). Clear side walls on the arms were 10 cm high and were angled at 65° to form a trough. A food well (4 cm diameter, 2 cm deep) was located at the distal end of each arm. Froot Loops™ (Kellogg Company) were used as rewards. Blocks constructed of Plexiglas™ (30 cm height x 12 cm width) could be positioned to prevent entry to any arm. Numerous extra maze cues surrounding the apparatus were also provided.
The AI rats were initially subjected to a pre-training test (Chappell et al. Neuropharmacology 37: 481-487, 1998). The pre-training test consisted of a habituation phase (4 days), a training phase on the standard win-shift task (18 days) and another training phase (14 days) in which a brief delay was imposed between presentation of a subset of arms designated by the experimenter (e.g., 5 arms available and 3 arms blocked) and completion of the eight-arm win-shift task (i.e., with all eight arms available).
In the habituation phase, rats were familiarized to the maze for an 8-minute session on four consecutive days. In each of these sessions food rewards were scattered on the RAM, initially on the center platform and arms and then progressively confined to the arms. After this habituation phase, a standard training protocol was used, in which a food pellet was located at the end of each arm. Rats received one trial each day for 18 days. Each daily trial terminated when all eight food pellets had been obtained or when either 16 choices were made or 15 minutes had elapsed. After completion of this training phase, a second training phase was carried out in which the memory demand was increased by imposing a brief delay during the trial. At the beginning of each trial, three arms of the eight-arm maze were blocked. Rats were allowed to obtain food on the five arms to which access was permitted during this initial 'information phase' of the trial. Rats were then removed from the maze for 60 seconds, during which time the barriers on the maze were removed, thus allowing access to all eight arms. Rats were then placed back onto the center platform and allowed to obtain the remaining food rewards during this 'retention test' phase of the trial. The identity and configuration of the blocked arms varied across trials. […]

[1] = tested on: entorhinal cortex (EC) of aMCI subjects; experiment: fMRI activity during lure stimuli correctly identified as similar, entorhinal cortex; format: in vivo, human; conditions: 125 mg twice a day for two weeks
Description: FIG. 9B depicts the average activity in the left entorhinal cortex of the same aMCI subjects with placebo treatment or levetiracetam treatment (125 mg twice a day for two weeks) during the presentation of lure stimuli that the subject correctly identified as "similar."
A within-subjects trial of 8 weeks duration, involving 17 amnestic MCI (aMCI) subjects and 17 age-matched controls with a low dose treatment of levetiracetam is conducted. During the course of the study, each aMCI subject receives both drug and placebo treatments separately in two periods of two weeks each, with the order of treatments among different aMCI subjects counterbalanced (see FIG. 7). Age-matched control subjects treated with placebo serve as a further control. Cognitive testing and fMRI imaging data are obtained from the subjects after each two week period of drug/placebo treatment.
Imaging data are obtained through high-resolution methods developed in the Stark laboratory. Data are collected on a Phillips 3 Tesla scanner (Eindhoven, The Netherlands) equipped with an 8-channel SENSE (Sensitivity Encoding) head coil, located at the F.M. Kirby Research Center for Functional Brain Imaging at the Kennedy Krieger Institute (Baltimore, MD). […]
Group data are analyzed using a two-way Analysis of Variance (ANOVA) with trial types and group as fixed factors, and subject as a random factor nested within group. […]

SMILES: CC[C@@H](C(N)=O)N1CCCC1=O [levetiracetam, (2S)-2-(2-oxopyrrolidin-1-yl) butanamide]
- average no. of errors ± SEM (aged-impaired (AI) rats; 5 mg/kg/day i.p.): 0.75 ± 0.32
- memory performance relative to vehicle control (aged-impaired (AI) rats; 5 mg/kg/day, t(9) = 2.18, p = 0.057): significantly improved memory performance
- average no. of errors ± SEM (aged-impaired (AI) rats; 10 mg/kg/day i.p.): 0.80 ± 0.27
- memory performance relative to vehicle control (aged-impaired (AI) rats; 10 mg/kg/day, t(9) = 2.37, p = 0.042): significantly improved memory performance
- performance of AI rats in the radial maze task (aged-impaired (AI) rats; levetiracetam 20 mg/kg): fails to improve the performace
- effective in reducing the number of errors, on its own (aged-impaired (AI) rats; levetiracetam i.p. 1.25 mg/kg): not
- effective in reducing the number of errors, on its own (aged-impaired (AI) rats; levetiracetam i.p. 2.5 mg/kg): not
- effective in reducing the number of errors, on its own (aged-impaired (AI) rats; levetiracetam i.p. 5-10 mg/kg): effective
- EC activity compared with placebo-treated control subjects [1]: statistically indistinguishable
- EC activity during memory judgments, vs placebo treatment [1]: increases EC activity
